According to PMC9199891 (Clinical and Translational Science, 2022):

Assay: Single-dose pharmacokinetics of omeprazole
Format: in vivo, healthy Chinese volunteers
Conditions: for AUC0-t / AUC0-∞ / Cmax: 20 mg single oral dose, mean ± SD; for Tmax: human, plasma, oral, 20 mg

For `COc1ccc2[nH]c([S+]([O-])Cc3ncc(C)c(OC)c3C)nc2c1` (centres unmarked) [omeprazole], the AUC0-t (CYP2C19 *1/*1 (n = 263)) was 466.2 ± 493.2 ng·h/mL, the “AUC0-∞” value (CYP2C19 *1/*1 (n = 263)) was 499.3 ± 498.4 ng·h/mL and the Cmax (CYP2C19 *1/*1 (n = 263)) was 309 ± 227 ng/mL. For the same molecule, the AUC0-t (CYP2C19 *1/*2 (n = 241)) was 766.4 ± 529.4 ng·h/mL, the “AUC0-∞” value (CYP2C19 *1/*2 (n = 241)) was 817.8 ± 524.4 ng·h/mL and the Cmax (CYP2C19 *1/*2 (n = 241)) was 449 ± 309 ng/mL. The AUC0-t (CYP2C19 *1/*3 (n = 48)) was 707.8 ± 490.3 ng·h/mL, the “AUC0-∞” value (CYP2C19 *1/*3 (n = 48)) was 808.0 ± 545.9 ng·h/mL and the Cmax (CYP2C19 *1/*3 (n = 48)) was 440 ± 390 ng/mL. For the same molecule, the AUC0-t (CYP2C19 *1/*17 (n = 6)) was 363.8 ± 232.6 ng·h/mL, the “AUC0-∞” value (CYP2C19 *1/*17 (n = 6)) was 366.5 ± 233.4 ng·h/mL and the AUC0-t (CYP2C19 *2/*2 (n = 74)) was 3379 ± 1421 ng·h/mL. The “AUC0-∞” value (CYP2C19 *2/*2 (n = 74)) was 3790 ± 1311 ng·h/mL, the Cmax (CYP2C19 *2/*2 (n = 74)) was 1130 ± 992 ng/mL and the AUC0-t (CYP2C19 *2/*3 (n = 17)) was 3908 ± 1560 ng·h/mL. The “AUC0-∞” value (CYP2C19 *2/*3 (n = 17)) was 4221 ± 1453 ng·h/mL, the Cmax (CYP2C19 *2/*3 (n = 17)) was 1040 ± 550 ng/mL and the AUC0-t (CYP2C19 *2/*17 (n = 2)) was 507.3 ± 150.3 ng·h/mL. For the same molecule, the “AUC0-∞” value (CYP2C19 *2/*17 (n = 2)) was 693.0 ± 109.6 ng·h/mL, the Cmax (CYP2C19 *2/*17 (n = 2)) was 530 ± 344 ng/mL and the AUC0-t (CYP2C19 *3/*3 (n = 2)) was 3913 ± 493.0 ng·h/mL. For the same molecule, the “AUC0-∞” value (CYP2C19 *3/*3 (n = 2)) was 4444 ± 793.4 ng·h/mL, the Cmax (CYP2C19 *3/*3 (n = 2)) was 884 ± 575 ng/mL and the AUC0-t (CYP2C19 *3/*17 (n = 3)) was 544.8 ± 14.52 ng·h/mL. The “AUC0-∞” value (CYP2C19 *3/*17 (n = 3)) was 547.0 ± 14.47 ng·h/mL, the Cmax (CYP2C19 phenotype IM (n = 294)) was 447 ± 322 ng/mL and the AUC0-t (CYP2C19 phenotype NM (n = 263)) was 466.16 ± 493.21 ng·h/mL. The Cmax (CYP2C19 phenotype NM (n = 263)) was 308 ± 227 ng/mL, the AUC0-t (CYP2C19 phenotype PM (n = 93)) was 3487.32 ± 1440.13 ng·h/mL and the “AUC0-∞” value (CYP2C19 phenotype PM (n = 93)) was 3883.09 ± 1331.02 ng·h/mL. For the same molecule, the Cmax (CYP2C19 phenotype PM (n = 93)) was 1110 ± 916 ng/mL, the AUC0-t (CYP2C19 phenotype RM (n = 6)) was 363.77 ± 232.56 ng·h/mL and the “Cmax increase in PM” value (PM versus IM) was 2.5 fold. It also gave a Tmax (after administration in all groups (four phenotype groups)) of 3.89 to 4.45 h and a Tmax (after administration in all subjects (nine diplotype groups)) of 1.33 to 4.6 h.
